Reference: ChEMBL document CHEMBL5303573, “Mapping human microbiome drug metabolism by gut bacteria and their genes” (Nature, 2019)

Columns and labels:
[1] = The drug is tested on Enterobacter cancerogenus strain: ATCC35316 for biotransformation. The drug concentrations were measured before and after a 12-h incubation by liquid-chromatography-coupled mass spectrometry (LC–MS); conditions: 2 µM
[2] = The drug is tested on Blautia hansenii strain: DSM20583 for biotransformation. The drug concentrations were measured before and after a 12-h incubation by liquid-chromatography-coupled mass spectrometry (LC–MS); conditions: 2 µM
[3] = enterocloster bolteae, 12 h, 2 µM
Description: The drug is tested on Clostridium bolteae strain: ATCCBAA-613 for biotransformation. The drug concentrations were measured before and after a 12-h incubation by liquid-chromatography-coupled mass spectrometry (LC–MS)

[4] = bacteroides fragilis, 12 h, 2 µM
Description: The drug is tested on Bacteroides fragilis strain: DS-208 for biotransformation. The drug concentrations were measured before and after a 12-h incubation by liquid-chromatography-coupled mass spectrometry (LC–MS)

[5] = bacteroides stercoris, 12 h, 2 µM
Description: The drug is tested on Bacteroides stercoris strain: ATCC43183 for biotransformation. The drug concentrations were measured before and after a 12-h incubation by liquid-chromatography-coupled mass spectrometry (LC–MS)

[6] = anaerostipes sp., 12 h, 2 µM
Description: The drug is tested on Anaerostipes sp. strain: fecal isolate for biotransformation. The drug concentrations were measured before and after a 12-h incubation by liquid-chromatography-coupled mass spectrometry (LC–MS)

[7] = The drug is tested on Bacteroides pectinophilus strain: ATCC43243 for biotransformation. The drug concentrations were measured before and after a 12-h incubation by liquid-chromatography-coupled mass spectrometry (LC–MS); conditions: 2 µM
[8] = The drug is tested on Clostridium asparagiforme strain: DSM15981 for biotransformation. The drug concentrations were measured before and after a 12-h incubation by liquid-chromatography-coupled mass spectrometry (LC–MS); assay type: ADME; design: dose 2 uM, timepoint 0 vs 12 hours; conditions: enterocloster asparagiformis, 2 µM
[9] = The drug is tested on Parabacteroides merdae strain: ATCC43184 for biotransformation. The drug concentrations were measured before and after a 12-h incubation by liquid-chromatography-coupled mass spectrometry (LC–MS); conditions: 2 µM
[10] = The drug is tested on Ruminococcus torques strain: ATCC27756 for biotransformation. The drug concentrations were measured before and after a 12-h incubation by liquid-chromatography-coupled mass spectrometry (LC–MS); assay type: ADME; design: dose 2 uM, timepoint 0 vs 12 hours; conditions: 2 µM
[11] = The drug is tested on Bacteroides vulgatus strain: ATCC8482 for biotransformation. The drug concentrations were measured before and after a 12-h incubation by liquid-chromatography-coupled mass spectrometry (LC–MS); conditions: phocaeicola vulgatus, 2 µM
[12] = The drug is tested on Eubacterium ventriosum strain: ATCC27560 for biotransformation. The drug concentrations were measured before and after a 12-h incubation by liquid-chromatography-coupled mass spectrometry (LC–MS); assay type: ADME; design: dose 2 uM, timepoint 0 vs 12 hours; conditions: 2 µM
[13] = The drug is tested on Clostridium ramosum strain: DSM1402 for biotransformation. The drug concentrations were measured before and after a 12-h incubation by liquid-chromatography-coupled mass spectrometry (LC–MS); conditions: thomasclavelia ramosa, 2 µM
[14] = The drug is tested on Bacteroides dorei strain: DSM17855 for biotransformation. The drug concentrations were measured before and after a 12-h incubation by liquid-chromatography-coupled mass spectrometry (LC–MS); conditions: phocaeicola dorei, 2 µM
[15] = The drug is tested on Bifidobacterium longum subsp. Infantis strain: CCUG52486 for biotransformation. The drug concentrations were measured before and after a 12-h incubation by liquid-chromatography-coupled mass spectrometry (LC–MS); conditions: 2 µM
[16] = bacteroides intestinalis, 12 h, 2 µM
Description: The drug is tested on Bacteroides intestinalis strain: DSM17393 for biotransformation. The drug concentrations were measured before and after a 12-h incubation by liquid-chromatography-coupled mass spectrometry (LC–MS)

[17] = The drug is tested on Bacteroides fragilis strain: HMW610 for biotransformation. The drug concentrations were measured before and after a 12-h incubation by liquid-chromatography-coupled mass spectrometry (LC–MS); conditions: 2 µM
[18] = The drug is tested on Clostridium symbiosum strain: ATCC14940 for biotransformation. The drug concentrations were measured before and after a 12-h incubation by liquid-chromatography-coupled mass spectrometry (LC–MS); conditions: 2 µM
[19] = The drug is tested on Escherichia coli strain: BW25113 for biotransformation. The drug concentrations were measured before and after a 12-h incubation by liquid-chromatography-coupled mass spectrometry (LC–MS); conditions: 2 µM
[20] = The drug is tested on Alistipes indistinctus strain: DSM22520 for biotransformation. The drug concentrations were measured before and after a 12-h incubation by liquid-chromatography-coupled mass spectrometry (LC–MS); conditions: 2 µM

## C#C[C@]1(OC(C)=O)CC[C@H]2[C@@H]3CCC4=C[C@@H](OC(C)=O)CC[C@@H]4[C@H]3CC[C@@]21C [ETHYNODIOL DIACETATE]
[1]
  Bacterial Biotransformation: Compound NOT metabolized
[2]
  Bacterial Biotransformation: Compound NOT metabolized
[3]
  Bacterial Biotransformation: Compound NOT metabolized
[4]
  Bacterial Biotransformation: Compound NOT metabolized
[5]
  Bacterial Biotransformation: Compound NOT metabolized
[6]
  Bacterial Biotransformation: Compound NOT metabolized
[7]
  Bacterial Biotransformation: Compound NOT metabolized
[8]
  Bacterial Biotransformation: Compound NOT metabolized
[9]
  Bacterial Biotransformation: Compound NOT metabolized
[10]
  Bacterial Biotransformation: Compound NOT metabolized
[11]
  Bacterial Biotransformation: Compound NOT metabolized
[12]
  Bacterial Biotransformation: Compound NOT metabolized
[13]
  Bacterial Biotransformation: Compound NOT metabolized
[14]
  Bacterial Biotransformation: Compound NOT metabolized
[15]
  Bacterial Biotransformation: Compound NOT metabolized
[16]
  Bacterial Biotransformation: Compound NOT metabolized

## COc1cc2nc(N3CCN(C(=O)C4CCCO4)CC3)nc(N)c2cc1OC (stereo not given) [TERAZOSIN]
[1]
  Bacterial Biotransformation: Compound NOT metabolized
[2]
  Bacterial Biotransformation: Compound NOT metabolized
[3]
  Bacterial Biotransformation: Compound NOT metabolized
[4]
  Bacterial Biotransformation: Compound NOT metabolized
[5]
  Bacterial Biotransformation: Compound NOT metabolized
[6]
  Bacterial Biotransformation: Compound NOT metabolized
[7]
  Bacterial Biotransformation: Compound NOT metabolized
[8]
  Bacterial Biotransformation: Compound NOT metabolized
[9]
  Bacterial Biotransformation: Compound NOT metabolized
[10]
  Bacterial Biotransformation: Compound NOT metabolized
[11]
  Bacterial Biotransformation: Compound NOT metabolized
[17]
  Bacterial Biotransformation: Compound NOT metabolized
[12]
  Bacterial Biotransformation: Compound NOT metabolized
[14]
  Bacterial Biotransformation: Compound NOT metabolized
[18]
  Bacterial Biotransformation: Compound NOT metabolized
[15]
  Bacterial Biotransformation: Compound NOT metabolized
[16]
  Bacterial Biotransformation: Compound NOT metabolized

## CCCCC1=NC2(CCCC2)C(=O)N1Cc1ccc(-c2ccccc2-c2nnn[nH]2)cc1 [IRBESARTAN]
[1]
  Bacterial Biotransformation: Compound metabolized
[2]
  Bacterial Biotransformation: Compound metabolized
[3]
  Bacterial Biotransformation: Compound metabolized
[4]
  Bacterial Biotransformation: Compound metabolized
[5]
  Bacterial Biotransformation: Compound metabolized
[6]
  Bacterial Biotransformation: Compound metabolized
[7]
  Bacterial Biotransformation: Compound metabolized
[8]
  Bacterial Biotransformation: Compound metabolized
[9]
  Bacterial Biotransformation: Compound metabolized
[10]
  Bacterial Biotransformation: Compound metabolized
[11]
  Bacterial Biotransformation: Compound metabolized
[17]
  Bacterial Biotransformation: Compound metabolized
[12]
  Bacterial Biotransformation: Compound NOT metabolized
[19]
  Bacterial Biotransformation: Compound metabolized
[14]
  Bacterial Biotransformation: Compound metabolized
[18]
  Bacterial Biotransformation: Compound metabolized
[15]
  Bacterial Biotransformation: Compound metabolized
[16]
  Bacterial Biotransformation: Compound metabolized
[20]
  Bacterial Biotransformation: Compound metabolized

## CC(O)(CS(=O)(=O)c1ccc(F)cc1)C(=O)Nc1ccc(C#N)c(C(F)(F)F)c1 (stereo not given) [BICALUTAMIDE]
[1]
  Bacterial Biotransformation: Compound metabolized
[2]
  Bacterial Biotransformation: Compound NOT metabolized
[3]
  Bacterial Biotransformation: Compound NOT metabolized
[4]
  Bacterial Biotransformation: Compound NOT metabolized
[5]
  Bacterial Biotransformation: Compound NOT metabolized
[6]
  Bacterial Biotransformation: Compound NOT metabolized
[7]
  Bacterial Biotransformation: Compound NOT metabolized
[8]
  Bacterial Biotransformation: Compound NOT metabolized
[9]
  Bacterial Biotransformation: Compound NOT metabolized
[10]
  Bacterial Biotransformation: Compound NOT metabolized
[17]
  Bacterial Biotransformation: Compound metabolized
[12]
  Bacterial Biotransformation: Compound NOT metabolized
[19]
  Bacterial Biotransformation: Compound metabolized
[13]
  Bacterial Biotransformation: Compound NOT metabolized
[18]
  Bacterial Biotransformation: Compound NOT metabolized
[15]
  Bacterial Biotransformation: Compound NOT metabolized
[16]
  Bacterial Biotransformation: Compound NOT metabolized

## O=C(O)CCC(=O)O.O=C(O[C@H]1CN2CCC1CC2)N1CCc2ccccc2[C@@H]1c1ccccc1 [SOLIFENACIN SUCCINATE]
[1]
  Bacterial Biotransformation: Compound NOT metabolized
[2]
  Bacterial Biotransformation: Compound NOT metabolized
[3]
  Bacterial Biotransformation: Compound NOT metabolized
[4]
  Bacterial Biotransformation: Compound NOT metabolized
[5]
  Bacterial Biotransformation: Compound NOT metabolized
[6]
  Bacterial Biotransformation: Compound NOT metabolized
[7]
  Bacterial Biotransformation: Compound NOT metabolized
[8]
  Bacterial Biotransformation: Compound NOT metabolized
[9]
  Bacterial Biotransformation: Compound NOT metabolized
[10]
  Bacterial Biotransformation: Compound NOT metabolized
[17]
  Bacterial Biotransformation: Compound NOT metabolized
[12]
  Bacterial Biotransformation: Compound NOT metabolized
[13]
  Bacterial Biotransformation: Compound NOT metabolized
[18]
  Bacterial Biotransformation: Compound NOT metabolized
[15]
  Bacterial Biotransformation: Compound NOT metabolized
[16]
  Bacterial Biotransformation: Compound NOT metabolized

## CCc1cccc2c3c([nH]c12)C(CC)(CC(=O)O)OCC3 (stereo not given) [ETODOLAC]
[1]
  Bacterial Biotransformation: Compound NOT metabolized
[2]
  Bacterial Biotransformation: Compound NOT metabolized
[3]
  Bacterial Biotransformation: Compound NOT metabolized
[4]
  Bacterial Biotransformation: Compound metabolized
[5]
  Bacterial Biotransformation: Compound NOT metabolized
[6]
  Bacterial Biotransformation: Compound NOT metabolized
[7]
  Bacterial Biotransformation: Compound NOT metabolized
[8]
  Bacterial Biotransformation: Compound NOT metabolized
[9]
  Bacterial Biotransformation: Compound NOT metabolized
[10]
  Bacterial Biotransformation: Compound NOT metabolized
[12]
  Bacterial Biotransformation: Compound NOT metabolized
[19]
  Bacterial Biotransformation: Compound NOT metabolized
[18]
  Bacterial Biotransformation: Compound NOT metabolized
[15]
  Bacterial Biotransformation: Compound NOT metabolized

## COc1ccccc1OCC(O)CN1CCN(CC(=O)Nc2c(C)cccc2C)CC1 (stereo not given) [RANOLAZINE]
[1]
  Bacterial Biotransformation: Compound NOT metabolized
[2]
  Bacterial Biotransformation: Compound NOT metabolized
[3]
  Bacterial Biotransformation: Compound NOT metabolized
[4]
  Bacterial Biotransformation: Compound NOT metabolized
[5]
  Bacterial Biotransformation: Compound NOT metabolized
[6]
  Bacterial Biotransformation: Compound NOT metabolized
[7]
  Bacterial Biotransformation: Compound NOT metabolized
[8]
  Bacterial Biotransformation: Compound NOT metabolized
[9]
  Bacterial Biotransformation: Compound NOT metabolized
[10]
  Bacterial Biotransformation: Compound NOT metabolized
[11]
  Bacterial Biotransformation: Compound NOT metabolized
[17]
  Bacterial Biotransformation: Compound NOT metabolized
[12]
  Bacterial Biotransformation: Compound NOT metabolized
[14]
  Bacterial Biotransformation: Compound NOT metabolized
[18]
  Bacterial Biotransformation: Compound NOT metabolized
[15]
  Bacterial Biotransformation: Compound NOT metabolized
[16]
  Bacterial Biotransformation: Compound NOT metabolized
[20]
  Bacterial Biotransformation: Compound NOT metabolized

## N=C(N)NC(=O)Cc1c(Cl)cccc1Cl [GUANFACINE]
[1]
  Bacterial Biotransformation: Compound NOT metabolized
[2]
  Bacterial Biotransformation: Compound NOT metabolized
[3]
  Bacterial Biotransformation: Compound NOT metabolized
[4]
  Bacterial Biotransformation: Compound NOT metabolized
[5]
  Bacterial Biotransformation: Compound NOT metabolized
[6]
  Bacterial Biotransformation: Compound NOT metabolized
[7]
  Bacterial Biotransformation: Compound NOT metabolized
[8]
  Bacterial Biotransformation: Compound NOT metabolized
[9]
  Bacterial Biotransformation: Compound NOT metabolized
[10]
  Bacterial Biotransformation: Compound NOT metabolized
[11]
  Bacterial Biotransformation: Compound NOT metabolized
[17]
  Bacterial Biotransformation: Compound NOT metabolized
[19]
  Bacterial Biotransformation: Compound NOT metabolized
[13]
  Bacterial Biotransformation: Compound NOT metabolized
[14]
  Bacterial Biotransformation: Compound NOT metabolized
[18]
  Bacterial Biotransformation: Compound NOT metabolized
[15]
  Bacterial Biotransformation: Compound NOT metabolized
[16]
  Bacterial Biotransformation: Compound NOT metabolized
